Where two headings read alike, the source gives them in different places.
Tests used:
TEAD2 [1] = molecular target: T1, TEAD2 (Homo sapiens (Human), UniProt Q15562); experiment: biochemical;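 further: TR-FRET competition assay with His-tagged TEAD protein and a biotinylated lipid pocket probe, compound pre-incubated 30 min or 4 h at room temperature, displacement lowers signal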
TEAD4 = TEAD4 (Homo sapiens (Human), UniProt Q15561); experiment: TR-FRET lipid pocket probe competition assay (Lipid HTRF), TEAD4; format: binding;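 further: His-tagged TEAD4 with biotinylated lipid-pocket probe, read by Europium anti-His and XL665 streptavidin, where probe displacement lowers the TR-FRET signal, IC50 from a four-parameter fit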
TEAD3 = TEAD3 (Homo sapiens (Human), UniProt Q99594); experiment: TR-FRET lipid pocket probe competition assay (Lipid HTRF), TEAD3; format: binding
Protocol: (§1) His-tagged TEAD proteins are pre-incubated with TEAD project compounds for 30 minutes or 4 hours at room temperature. Biotinylated lipid pocket probes are then added to the TEAD/Compound mixture and incubated for 60 minutes at room temperature. The lipid pocket probe competes with the test compound for the TEAD lipid pocket until equilibrium is reached. After 60 minutes, Europium labelled anti-His (Perkin Elmer #AD0110) and XL665 labelled streptavidin (CIS Bio 610SAXAC) are added to the TEAD/test compound/lipid pocket mixture and incubated for 30 minutes or 4 hours. […] If a TEAD lipid pocket binder such as binds and displaces the lipid pocket probe, the disruption of the TEAD:probe interaction results in a decrease in TR-FRET signal. The potency of compounds as TEAD lipid pocket binders is determined by IC50 value generated using a non-linear 4 parameter curve fit.

TEAD1 = TEAD1 (Homo sapiens (Human), UniProt P28347); experiment: TR-FRET lipid pocket probe competition assay (Lipid HTRF), TEAD1; format: binding;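 further: His-tagged TEAD1 with biotinylated probe, detected via Europium anti-His and XL665 streptavidin, probe displacement lowers TR-FRET signal, IC50 from four-parameter nonlinear fit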
Protocol: as §1

hNav1.5 sodium channels = hNav1.5 sodium channels (Homo sapiens (Human), UniProt Q14524); experiment: Cloned hNav1.5 sodium channels expressed in CHO cells, QPatch HT automated patch clamp; format: cell-based
Protocol: Example 183 A: Effects of Test Article on Cloned hNav1.5 Sodium Channels Expressed in Mammalian Cells
Chinese hamster ovary (CHO) cells expressing cloned hNav1.5 sodium channels (hNav1.5, encoded by the human SCNSA gene) are responsible for INa sodium channel current. From a 10 mM stock solution, test article was diluted to make a 1 mM, 0.1 mM, and 0.01 mM sub stock, which were stored frozen. All chemicals used in solution preparation were purchased from Sigma-Aldrich (St. Louis, MO) and were of ACS reagent grade purity or higher. Stock solutions of the test articles and the positive control were prepared in dimethyl sulfoxide (DMSO) and stored frozen. Test article and positive control concentrations were prepared fresh daily by diluting stock solutions into a HEPES-buffered physiological saline (HB-PS) solution (composition in mM): NaCl, 137; KCl, 4.0; CaCl2, 1.8; MgCl2, 1; HEPES, 10; Glucose, 10; pH adjusted to 7.4 with NaOH (refrigerated until use). […] Each test article formulation was sonicated (Model 2510/5510, Branson Ultrasonics, Danbury, CT) at room temperature for 20 minutes to facilitate dissolution. In preparation for the recording session, a glass-lined 96-well compound plate was loaded with the appropriate amounts of test and control solutions and placed in the plate well of the QPatch HT® (Sophion Bioscience A/S, Denmark), an automatic parallel patch clamp system. […]

TEAD2 [2] = molecular target: T1, TEAD2
[3] = 4 hours pre-incubation, read-out: Lipid HTRF TEAD4 IC50
[4] = 4 hours pre-incubation, read-out: Lipid HTRF TEAD3 IC50
[5] = 4 hours pre-incubation, read-out: Lipid HTRF TEAD1 IC50

TEAD3, sequence (Q99594 whole entry, species assumed): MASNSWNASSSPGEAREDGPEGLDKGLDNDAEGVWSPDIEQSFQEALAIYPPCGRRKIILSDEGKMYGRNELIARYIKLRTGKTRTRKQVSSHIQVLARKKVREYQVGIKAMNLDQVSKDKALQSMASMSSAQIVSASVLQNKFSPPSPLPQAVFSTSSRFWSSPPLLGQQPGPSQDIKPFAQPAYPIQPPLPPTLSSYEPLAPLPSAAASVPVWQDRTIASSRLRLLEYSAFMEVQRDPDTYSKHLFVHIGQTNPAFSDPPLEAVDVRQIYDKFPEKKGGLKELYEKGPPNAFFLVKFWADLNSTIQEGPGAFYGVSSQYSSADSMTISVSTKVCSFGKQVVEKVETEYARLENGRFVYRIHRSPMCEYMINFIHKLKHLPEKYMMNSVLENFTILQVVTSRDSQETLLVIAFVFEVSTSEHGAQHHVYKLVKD
T1 sequence (Q15562 whole entry, species assumed): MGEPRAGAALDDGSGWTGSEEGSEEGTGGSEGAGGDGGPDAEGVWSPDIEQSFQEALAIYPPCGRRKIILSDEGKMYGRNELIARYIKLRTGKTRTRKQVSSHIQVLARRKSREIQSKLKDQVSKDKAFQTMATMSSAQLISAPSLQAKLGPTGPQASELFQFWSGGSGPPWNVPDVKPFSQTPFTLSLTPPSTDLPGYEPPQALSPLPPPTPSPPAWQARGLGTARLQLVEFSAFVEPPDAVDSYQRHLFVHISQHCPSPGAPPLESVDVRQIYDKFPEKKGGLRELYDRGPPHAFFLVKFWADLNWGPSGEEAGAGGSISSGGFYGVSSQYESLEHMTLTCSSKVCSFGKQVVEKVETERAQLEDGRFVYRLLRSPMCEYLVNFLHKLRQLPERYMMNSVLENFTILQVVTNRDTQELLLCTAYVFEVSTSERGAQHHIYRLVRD
TEAD4, sequence (Q15561 whole entry, species assumed): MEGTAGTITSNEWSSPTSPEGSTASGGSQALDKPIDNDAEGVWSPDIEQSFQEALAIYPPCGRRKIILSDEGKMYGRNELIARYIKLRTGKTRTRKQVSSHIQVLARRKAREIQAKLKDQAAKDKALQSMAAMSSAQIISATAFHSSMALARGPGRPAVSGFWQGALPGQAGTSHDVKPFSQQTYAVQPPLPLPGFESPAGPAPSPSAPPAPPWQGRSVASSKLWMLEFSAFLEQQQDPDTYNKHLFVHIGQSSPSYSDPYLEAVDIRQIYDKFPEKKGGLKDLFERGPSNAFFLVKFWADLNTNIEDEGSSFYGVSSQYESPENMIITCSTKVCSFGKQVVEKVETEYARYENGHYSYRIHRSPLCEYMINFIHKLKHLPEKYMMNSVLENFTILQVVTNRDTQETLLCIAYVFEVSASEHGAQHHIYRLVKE
TEAD1, sequence (P28347 whole entry, species assumed): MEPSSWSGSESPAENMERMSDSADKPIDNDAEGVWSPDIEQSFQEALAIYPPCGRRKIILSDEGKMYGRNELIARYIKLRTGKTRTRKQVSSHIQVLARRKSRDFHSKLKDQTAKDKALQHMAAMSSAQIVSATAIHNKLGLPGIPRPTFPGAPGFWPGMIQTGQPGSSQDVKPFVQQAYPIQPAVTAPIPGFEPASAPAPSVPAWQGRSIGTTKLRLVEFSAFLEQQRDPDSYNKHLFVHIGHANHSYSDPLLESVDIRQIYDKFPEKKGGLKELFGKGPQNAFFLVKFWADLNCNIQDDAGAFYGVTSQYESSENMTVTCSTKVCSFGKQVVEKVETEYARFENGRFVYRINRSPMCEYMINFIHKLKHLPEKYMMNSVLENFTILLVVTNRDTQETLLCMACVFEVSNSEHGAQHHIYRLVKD
hNav1.5 sodium channels, sequence (Q14524 whole entry): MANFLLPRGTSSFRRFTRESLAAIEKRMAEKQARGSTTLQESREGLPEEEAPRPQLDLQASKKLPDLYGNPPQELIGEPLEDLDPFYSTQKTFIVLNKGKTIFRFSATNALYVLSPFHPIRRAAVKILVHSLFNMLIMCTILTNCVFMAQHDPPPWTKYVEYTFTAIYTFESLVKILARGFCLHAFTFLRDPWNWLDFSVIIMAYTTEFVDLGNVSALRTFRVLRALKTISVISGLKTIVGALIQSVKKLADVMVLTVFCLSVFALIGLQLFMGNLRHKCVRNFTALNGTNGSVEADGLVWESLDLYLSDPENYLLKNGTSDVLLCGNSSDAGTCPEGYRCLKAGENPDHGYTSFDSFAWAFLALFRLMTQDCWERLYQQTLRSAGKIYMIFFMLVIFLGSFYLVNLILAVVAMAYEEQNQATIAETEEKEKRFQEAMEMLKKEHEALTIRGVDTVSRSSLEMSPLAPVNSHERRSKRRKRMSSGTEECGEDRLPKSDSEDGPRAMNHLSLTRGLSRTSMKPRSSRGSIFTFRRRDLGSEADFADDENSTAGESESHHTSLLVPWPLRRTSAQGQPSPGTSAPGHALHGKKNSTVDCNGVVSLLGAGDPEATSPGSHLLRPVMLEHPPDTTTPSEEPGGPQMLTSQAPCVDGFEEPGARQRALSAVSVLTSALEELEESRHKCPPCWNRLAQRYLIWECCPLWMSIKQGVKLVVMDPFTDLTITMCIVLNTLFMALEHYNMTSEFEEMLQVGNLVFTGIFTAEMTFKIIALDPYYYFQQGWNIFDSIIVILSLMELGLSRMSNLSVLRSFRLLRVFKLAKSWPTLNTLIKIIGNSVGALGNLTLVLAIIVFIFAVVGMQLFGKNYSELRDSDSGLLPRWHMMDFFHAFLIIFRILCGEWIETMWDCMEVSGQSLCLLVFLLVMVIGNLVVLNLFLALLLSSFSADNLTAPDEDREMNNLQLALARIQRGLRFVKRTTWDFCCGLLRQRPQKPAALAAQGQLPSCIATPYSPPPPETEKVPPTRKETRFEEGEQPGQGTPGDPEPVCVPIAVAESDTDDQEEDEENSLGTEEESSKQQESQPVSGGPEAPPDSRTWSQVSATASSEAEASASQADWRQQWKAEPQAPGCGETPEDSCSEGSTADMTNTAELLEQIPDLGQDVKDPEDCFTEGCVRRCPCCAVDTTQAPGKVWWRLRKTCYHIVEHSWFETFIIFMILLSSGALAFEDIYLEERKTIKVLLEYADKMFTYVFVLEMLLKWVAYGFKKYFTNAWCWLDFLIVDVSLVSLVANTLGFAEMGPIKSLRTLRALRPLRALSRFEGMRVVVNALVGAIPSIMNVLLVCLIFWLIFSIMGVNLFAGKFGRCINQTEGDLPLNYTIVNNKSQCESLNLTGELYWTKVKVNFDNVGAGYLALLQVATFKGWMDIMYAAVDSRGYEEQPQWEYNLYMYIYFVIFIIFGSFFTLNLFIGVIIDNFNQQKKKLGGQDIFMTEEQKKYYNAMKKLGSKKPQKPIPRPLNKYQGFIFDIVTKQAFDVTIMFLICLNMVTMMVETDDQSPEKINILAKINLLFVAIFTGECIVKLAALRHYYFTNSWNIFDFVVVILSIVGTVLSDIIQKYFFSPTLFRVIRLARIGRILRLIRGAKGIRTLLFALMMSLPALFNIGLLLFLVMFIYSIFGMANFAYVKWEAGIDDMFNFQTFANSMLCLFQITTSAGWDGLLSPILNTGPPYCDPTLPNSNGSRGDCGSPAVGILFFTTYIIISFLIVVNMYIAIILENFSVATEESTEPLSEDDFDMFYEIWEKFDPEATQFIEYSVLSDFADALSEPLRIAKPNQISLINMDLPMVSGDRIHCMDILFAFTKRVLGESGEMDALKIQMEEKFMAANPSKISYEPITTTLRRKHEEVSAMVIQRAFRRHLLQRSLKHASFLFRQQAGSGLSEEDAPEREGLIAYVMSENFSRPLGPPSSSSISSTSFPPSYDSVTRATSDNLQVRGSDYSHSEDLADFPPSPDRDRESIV

| SMILES | IC50 (TEAD2 [1]) [nM] | IC50 (TEAD4; [3]) [nM] | IC50 (TEAD3; [4]) [nM] | IC50 (TEAD1; [5]) [nM] | IC50 (TEAD2 [2]) [nM] | NaV1.5 (Phasic) 10 uM concentration % inhibition (hNav1.5 sodium channels; 10 uM, mean % inhibition, n>=2 cells) [%] | IC50 (hNav1.5 sodium channels; 0.01-100 uM, read-out: NaV1.5 (Phasic) IC50) [nM] | IC50 (TEAD4) [nM] | IC50 (TEAD3) [nM] | IC50 (TEAD1) [nM] |
| --- | --- | --- | --- | --- | --- | --- | --- | --- | --- | --- |
| C=CC(=O)NCc1nn(-c2ccc(S(F)(F)(F)(F)F)cc2)c2nccc([C@H](O)CO)c12 (stereo in doubt) [Compound 23, N-((4-(1,2-dihydroxyethyl)-1-(4-(pentafluoro-λ^6-sulfanyl)phenyl)-1H-pyrazolo[3,4-b]pyridin-3-yl)methyl)acrylamide] | 66 | 17 | 890 | 43 | – | – | – | – | – | – |
| C=CC(=O)NCc1nn(-c2ccc(S(F)(F)(F)(F)F)cc2)c2nccc([C@@H](O)CO)c12 (stereo in doubt) [Compound 27, N-((4-(1,2-dihydroxyethyl)-1-(4-(pentafluoro-λ^6-sulfanyl)phenyl)-1H-pyrazolo[3,4-b]pyridin-3-yl)methyl)acrylamide] | 270 | 71 | 1100 | 290 | – | – | – | – | – | – |
| C=CC(=O)NCc1nn(-c2cccc(OC(F)(F)F)c2)c2nccc([C@H](O)CO)c12 (stereo in doubt) [Compound 73, N-((4-(1,2-dihydroxyethyl)-1-(3-(trifluoromethoxy)phenyl)-1H-pyrazolo[3,4-b]pyridin-3-yl)methyl)acrylamide] | 430 | 33 | 290 | 870 | – | – | – | – | – | – |
| C=CC(=O)NCc1nn(-c2ccc(C(F)(F)F)cc2)c2nccc([C@@H](O)CO)c12 (stereo in doubt) [Compound 88, N-((4-(1,2-dihydroxyethyl)-1-(4-(trifluoromethyl)phenyl)-1H-pyrazolo[3,4-b]pyridin-3-yl)methyl)acrylamide] | 150 | 43 | 2100 | 80 | – | – | – | – | – | – |
| C=CC(=O)NCc1nn(-c2ccc(C(F)(F)F)cc2)c2nccc([C@H](O)CO)c12 (stereo in doubt) [Compound 100, N-((4-(1,2-dihydroxyethyl)-1-(4-(trifluoromethyl)phenyl)-1H-pyrazolo[3,4-b]pyridin-3-yl)methyl)acrylamide] | 520 | 100 | 720 | 480 | – | – | – | – | – | – |
| C=CC(=O)NCc1nn(-c2cccc(OC(F)(F)F)c2)c2nccc([C@@H](O)CO)c12 (stereo in doubt) [Compound 131, N-((4-(1,2-dihydroxyethyl)-1-(3-(trifluoromethoxy)phenyl)-1H-pyrazolo[3,4-b]pyridin-3-yl)methyl)acrylamide] | 89 | 30 | 2900 | 290 | – | – | – | – | – | – |
| C=CC(=O)NCc1nn(-c2ccc(OC(F)(F)F)cc2)c2nccc([C@H](O)CO)c12 [Compound 17, N-[[4-[(1S)-1,2-dihydroxyethyl]-1-[4-(trifluoromethoxy)phenyl]pyrazolo[3,4-b]pyridin-3-yl]methyl]prop-2-enamide] | – | 20 | 770 | 35 | 32 | 32.1 | – | – | – | – |
| C=C(F)C(=O)N1CC(c2nn(-c3ccc(OC(F)(F)F)cc3)c3nccc(CO)c23)C1 [Compound 20, 2-fluoro-1-[3-[4-(hydroxymethyl)-1-[4-(trifluoromethoxy)phenyl]pyrazolo[3,4-b]pyridin-3-yl]azetidin-1-yl]prop-2-en-1-one] | – | – | – | – | – | – | 42100 | – | – | – |
| C=CC(=O)NCc1nn(-c2ccc(OC(F)(F)F)cc2)c2nccc(N3CCOCC3)c12 [Compound 77, N-((4-morpholino-1-(4-(trifluoromethoxy)phenyl)-1H-pyrazolo[3,4-b]pyridin-3-yl)methyl)acrylamide] | 40 | 65 | 5700 | 93 | – | – | – | – | – | – |
| [2H]C([2H])=C([2H])C(=O)NCc1nn(-c2ccc(OC(F)(F)F)cc2)c2nccc(CO)c12 [Compound 111, 2,3,3-Trideuterio-N-[[4-(hydroxymethyl)-1-[4-(trifluoromethoxy)phenyl]pyrazolo[3,4-b]pyridin-3-yl]methyl]prop-2-enamide] | 62 | 28 | 290 | 16 | – | – | – | – | – | – |
| [2H]C([2H])=C([2H])C(=O)NCc1nn(-c2ccc(OC(F)(F)F)cc2)c2nccc([C@H](O)CO)c12 [Compound 154, (S)-N-((4-(1,2-Dihydroxyethyl)-1-(4-(trifluoromethoxy)phenyl)-1H-pyrazolo[3,4-b]pyridin-3-yl)methyl)acrylamide-2,3,3-d3] | 36 | – | – | – | – | – | – | 22 | 1200 | 44 |
| C=C(F)C(=O)N1CC(c2nn(-c3ccc(OC(F)(F)F)cc3)c3nccc(-c4cnn(C(C)C)c4)c23)C1 [Compound 178, 2-fluoro-1-(3-(4-(1-isopropyl-1H-pyrazol-4-yl)-1-(4-(trifluoromethoxy)phenyl)-1H-pyrazolo[3,4-b]pyridin-3-yl)azetidin-1-yl)prop-2-en-1-one] | – | 200 | 50000 | 87 | 860 | – | – | – | – | – |
| C=C(F)C(=O)N1CC(c2nn(-c3ccc(OC(F)(F)F)cc3)c3nccc(-c4cnn(CCS(C)(=O)=O)c4)c23)C1 [Compound 179, 2-fluoro-1-(3-(4-(1-(2-(methylsulfonyl)ethyl)-1H-pyrazol-4-yl)-1-(4-(trifluoromethoxy)phenyl)-1H-pyrazolo[3,4-b]pyridin-3-yl)azetidin-1-yl)prop-2-en-1-one] | – | 17 | 50000 | 32 | 650 | – | – | – | – | – |

Further lines, with some results ahead:

| IC50 (TEAD2 [1]) [nM] | IC50 (TEAD4; [3]) [nM] | IC50 (TEAD3; [4]) [nM] | IC50 (TEAD1; [5]) [nM] | IC50 (TEAD2 [2]) [nM] | SMILES | NaV1.5 (Phasic) 10 uM concentration % inhibition (hNav1.5 sodium channels; 10 uM, mean % inhibition, n>=2 cells) [%] | IC50 (hNav1.5 sodium channels; 0.01-100 uM, read-out: NaV1.5 (Phasic) IC50) [nM] | IC50 (TEAD4) [nM] | IC50 (TEAD3) [nM] | IC50 (TEAD1) [nM] |
| --- | --- | --- | --- | --- | --- | --- | --- | --- | --- | --- |
| – | 110 | 50000 | 43 | 160 | C=C(F)C(=O)N1CC(c2nn(-c3ccc(OC(F)(F)F)cc3)c3nccc(-c4cnn(CC(=O)N(C)C)c4)c23)C1 [Compound 180, 2-(4-(3-(1-(2-fluoroacryloyl)azetidin-3-yl)-1-(4-(trifluoromethoxy)phenyl)-1H-pyrazolo[3,4-b]pyridin-4-yl)-1H-pyrazol-1-yl)-N,N-dimethylacetamide] | – | – | – | – | – |
| – | 37 | 50000 | 24 | 62 | C=C(F)C(=O)N1CC(c2nn(-c3ccc(OC(F)(F)F)cc3)c3nccc(-c4cnn(CC(N)=O)c4)c23)C1 [Compound 181, 2-(4-(3-(1-(2-fluoroacryloyl)azetidin-3-yl)-1-(4-(trifluoromethoxy)phenyl)-1H-pyrazolo[3,4-b]pyridin-4-yl)-1H-pyrazol-1-yl)acetamide] | – | – | – | – | – |
| – | 13 | 440 | 25 | 130 | C=C(F)C(=O)N1CC(c2nn(-c3ccc(OC(F)(F)F)cc3)c3nccc(-c4cn[nH]c4)c23)C1 [Compound 182, 1-(3-(4-(1H-pyrazol-4-yl)-1-(4-(trifluoromethoxy)phenyl)-1H-pyrazolo[3,4-b]pyridin-3-yl)azetidin-1-yl)-2-fluoroprop-2-en-1-one] | – | – | – | – | – |
| – | 110 | 1100 | 180 | 1800 | C=C(F)C(=O)N1CC(c2nn(-c3ccc(OC(F)(F)F)cc3Cl)c3nccc(CO)c23)C1 [Compound 183, 1-(3-(1-(2-chloro-4-(trifluoromethoxy)phenyl)-4-(hydroxymethyl)-1H-pyrazolo[3,4-b]pyridin-3-yl)azetidin-1-yl)-2-fluoroprop-2-en-1-one] | – | – | – | – | – |
| – | 100 | 790 | 140 | 2300 | C=C(F)C(=O)N1CC(c2nn(-c3ccc(OC(F)(F)F)cc3C)c3nccc(CO)c23)C1 [Compound 184, 2-fluoro-1-(3-(4-(hydroxymethyl)-1-(2-methyl-4-(trifluoromethoxy)phenyl)-1H-pyrazolo[3,4-b]pyridin-3-yl)azetidin-1-yl)prop-2-en-1-one] | – | – | – | – | – |
| – | 31 | 260 | 57 | 120 | C=C(F)C(=O)N1CC(c2nn(-c3ccc(OC(F)(F)F)cc3F)c3nccc(CO)c23)C1 [Compound 185, 2-fluoro-1-[3-[1-[2-fluoro-4-(trifluoromethoxy)phenyl]-4-(hydroxymethyl)pyrazolo[3,4-b]pyridin-3-yl]azetidin-1-yl]prop-2-en-1-one] | – | – | – | – | – |
| – | 52.5 | 255 | 270 | 430 | C=CC(=O)NCc1nn(-c2ccc(OC(F)(F)F)cc2)c2cccc(C#N)c12 [Compound 186, N-((4-cyano-1-(4-(trifluoromethoxy)phenyl)-1H-indazol-3-yl)methyl)acrylamide] | – | – | – | – | – |
| – | 55 | 950 | 91 | 1200 | C=CC(=O)NCc1nn(-c2ccc(OC(F)(F)F)cc2)c2cccnc12 [Compound 187, N-((1-(4-(trifluoromethoxy)phenyl)-1H-pyrazolo[4,3-b]pyridin-3-yl)methyl)acrylamide] | – | – | – | – | – |
| – | 7.3 | 150 | 7.2 | 84 | C=CC(=O)NCc1nn(-c2ccc(OC(F)(F)F)cc2)c2ncccc12 [Compound 188, N-((1-(4-(trifluoromethoxy)phenyl)-1H-pyrazolo[3,4-b]pyridin-3-yl)methyl)acrylamide] | – | – | – | – | – |
